Measured values reported in patent US7964613B2 (Asahi Kasei Pharma Corporation, priority 2007, dated 2011).

What was measured:
intraocular pressure [1] = assay: Rabbit intraocular pressure reduction enhancing action, Test Example 7-1 (combination use); type: in vivo, Japanese white rabbit; settings: 19-1 compound 0.01 weight % aqueous solution 50 μL, left-right eye difference at 2, 4, 6 hours, six rabbits
Procedure: However, the effect is not limited to the 19-1 compound, and the ophthalmic solution concentration of the 19-1 compound is not limited to those used in this test example. Moreover, as for the test compound used for combination use, similar effect can be obtained also with the compounds of the present invention represented with the example numbers mentioned in Test Example 3.
As a test compound, the 19-1 compound was dissolved in physiological saline, and the solution was neutralized by addition of sodium hydroxide (pH 7.0 to 8.0) to prepare a 0.01 weight % aqueous solution (19-1 compound aqueous solution). As the drugs for combination use, isopropyl unoprostone (trade name: Rescula, Santen Pharmaceutical) was used as a prostaglandin-related drug, and brinzolamide hydrochloride (trade name: Azopt, Alcon Japan) was used as […], as the marketed formulations as they were.
A Japanese white rabbit having a body weight of about 2 kg was placed in a positioner and naturalized for one week before the experiment. An opthalmologic local anesthesant (Benoxil) was administered to both eyes, and then intraocular pressure before instillation was measured by using a tonometer (Classic 30, Solan). A test aqueous solution or the drug for combination use was administered to the left eye, and the right eye was not treated (control eye). The test groups consisted of (1) control group, (2) group instilled only with the 19-1 compound aqueous solution (single drug group 1), (3) group instilled only with the drug for combination use (single drug group 2), and (4) group instilled with the drug for combination use and the 19-1 compound aqueous solution (combination use group), and six rabbits were used for each group. As for the rabbits of these groups, 50 μL of physiological saline was first instilled to the control group, single drug group 1, and single drug group 2, and the drug for combination use was first instilled in the same volume to the combination use group. […] The intraocular pressure thereafter was measured for each group 2, 4 and 6 hours after the second administration of the test compound, and the difference of the measured values for the left and right eyes at each measurement time was considered an intraocular pressure reduction value of each group. The largest difference of the intraocular pressure values for the left and right eyes among those of the measured values of the measurement times was considered the maximum intraocular pressure reduction value (max ? IOP) of each drug group.

intraocular pressure [2] = assay: Intraocular pressure reduction enhancing action in monkey; type: in vivo; settings: cynomolgus monkey, 0.01 weight % aqueous solution, 30 μL
Procedure: Moreover, as for the test compound used for combination use, similar effect can be obtained also with the compounds of the present invention represented with the example numbers mentioned in Test Example 3. The test is performed by using cynomolgus monkeys sufficiently naturalized for the operation of fixation on a monkey chair and ophathalmotonometry.
As the test compound, the 19-1 compound is dissolved in physiological saline, and the solution is neutralized by addition of sodium hydroxide (pH 7.0 to 8.0) to prepare a 0.01 weight % aqueous solution (19-1 compound aqueous solution). As a drug for combination use, latanoprost (trade name: Xalatan, Pfizer) is used as the marketed formulation per se. The test aqueous solution or the drug for combination use is instilled to the left eye, and the right eye is not treated (control eye). […] After initial intraocular pressure values of the monkeys are measured for each group, 30 μL of physiological saline is instilled to the control group, single drug group 1, and single drug group 2, and latanoprost is instilled in the same volume to the combination use group. […] Then, the intraocular pressure is measured over time for each group.

hippocampus nerve cells = assay: Effect of neurite outgrowth; type: cell-based, Wistar rat; settings: 22 hours
Procedure: A Lab-Tek culture slide (4-well) was coated with poly-L-lysine (Sigma). A pregnant Wistar rat was used, and anesthetized with ether on day 18 of gestation. Then, a rat fetus was taken out from the rat, and the hippocampus was extracted from the brain of the fetus, put into a phosphate buffered physiological saline containing 0.1% trypsin, and incubated at 37° C. for 10 minutes. The hippocampus precipitated by centrifugation was ground in a medium containing 10% heat-inactivated fetal bovine serum by using a pipet to obtain hippocampus nerve cells. The cells were finally suspended in a medium containing B27 Supplement (Gibco), and plated on the preliminarily coated Lab-Tek culture slide at a density of 50,000 cells/well. After adhesion of the cells (about 2 hours), a drug was added at a desired concentration, and the slide was further incubated at 37° C. for 22 hours under 5% CO2. […]
After the incubation, the cells were fixed with 4% paraformaldehyde, and immunostained by using rabbit anti-beta-III-tubulin antibodies (Covance). Images of the nerve cells were captured into a computer by using a digital camera (DP-70, Olympus) installed in a fluorescence microscope (Olympus). Images of 20 to 30 of arbitrary sites on the slide were captured, and lengths of the axial fivers of 200 to 300 nerve cells were measured by using NIH imaging software for each drug. […]

Structure (SMILES)	Max IOP (maximum intraocular pressure reduction value) (intraocular pressure [1]; Table 4, Azopt 50 μL)	Max IOP (maximum intraocular pressure reduction value) (intraocular pressure [1]; Table 5, Rescula 50 μL)	intraocular pressure reducing action in single drug group 1 (intraocular pressure [2])	neurites extended compared with non-treated nerve cells (hippocampus nerve cells; concentration of 1 μM)	neurites extended compared with non-treated nerve cells (hippocampus nerve cells; concentration of 10 μM)
N[C@H]1CCN(S(=O)(=O)c2cccc3cncc(Cl)c23)C1 [Example 19-1, (S)-3-Amino-1-(4-chloro-5-isoquinolinesulfonyl)pyrrolidine]	4.3 mmHg	4.3 mmHg	exceeding that of the control group	–	–
CN[C@H]1CCN(S(=O)(=O)c2cccc3c(O)ncc(Cl)c23)C1 [Example 36-1, (S)-1-(1-Hydroxy-4-chloro-5-isoquinolinesulfonyl)-3-(methylamino)pyrrolidine]	–	–	–	28%	43%
